Experimental data as given in PubChem BioAssay AID493198 (Southern Research Specialized Biocontainment Screening …, 2011).
Activity calls are given as the source filed them. How the calls were made is not given here. Where a SMILES comes first, the peptide text is derived from it.

Experiments:
[1] = test system: Mycobacterium tuberculosis H37Rv growth in 7H9 media; assay: M. tuberculosis growth inhibition, dose response, H37Rv, purified and synthesized compounds (AID 493198); settings: for IC90: 90% growth inhibition concentration
[2] = as above; settings: Mycobacterium tuberculosis H37Rv growth in 7H9 media; at 100 µM (top of the series)

For Cc1nn2c(NCc3ccccn3)cc(C(C)C)nc2c1-c1ccccc1, the IC50 [1] was 1030 nM and the IC90 [1] was 1560 nM.

With c1ccc(/N=C2\N=C(Nc3ccccn3)c3ccccc32)nc1 the IC50 [1] was < 200 nM and the IC90 [1] was < 200 nM.

In the case of O=C(NCC(c1cccs1)N1CCOCC1)c1cc([N+](=O)[O-])cc([N+](=O)[O-])c1 (centres undefined), the IC50 [1] is reported as < 200 nM and the IC90 [1] is reported as < 200 nM.

For CC(=NCc1ccc2c(c1)OCO2)C1=C(O)c2ccccc2C1=O, the IC50 [1] was < 200 nM and the IC90 [1] was 23100 nM.

Work on O=C(/C=C\c1cccs1)N1CCN(Cc2ccc3c(c2)OCO3)CC1 yielded an IC50 [1] of 445 nM and an IC90 [1] of 7480 nM.

With Cc1cccc(/C=C/C(=O)c2ccc([N+](=O)[O-])o2)c1 the IC50 [1] was < 200 nM and the IC90 [1] was < 200 nM.

In the case of S=c1nc[nH]c2nc[nH]c12, the IC50 [1] is reported as 1280 nM and the IC90 [1] is reported as 1760 nM.

Molecule CCc1ccc(/C=C2/C(=O)N(C)C(=S)N2CC(=O)OC)s1 has an IC50 [1] of 2270 nM and an IC90 [1] of 17700 nM.

With CNc1nc(SCc2ccccc2Cl)nc2c1CCCC2 the IC50 [1] was < 200 nM and the IC90 [1] was 5050 nM.

In the case of Cc1nc(SCC(=O)NC2CCCCC2)[nH]c(=O)c1C, the IC50 [1] is reported as < 200 nM and the IC90 [1] is reported as < 200 nM.

Work on Cc1ccc(NC(=O)C2C3/C=C\CCCCC32)cc1C (centres undefined) yielded an IC50 [1] of 1170 nM and an IC90 [1] of 1840 nM.

For COC(=O)c1cc(=O)n(-c2ccc(F)cc2)c(=Nc2ccc(F)cc2)s1, the IC50 [1] was < 200 nM and the IC90 [1] was 1580 nM.

For CCOC(=O)C(C)Sc1ncnc2c1nnn2-c1ccc(F)cc1 (centres undefined), the IC50 [1] was < 200 nM and the IC90 [1] was 7770 nM.

For CC(C)NC(=O)c1sc(=S)n2c1[nH]c(=O)c1ccc(C(=O)NCCc3ccc(Cl)cc3)cc12, the IC50 [1] was < 200 nM and the IC90 [1] was < 200 nM.

For O=C(CSc1nc2ccccc2c(=O)[nH]1)NCc1ccc(Cl)cc1, the IC50 [1] was < 200 nM and the IC90 [1] was 929 nM.

CCOC(=O)COn1c2c(c3c4no[n+]([O-])c4ccc31)CCCC2 gave an IC50 [1] of 1580 nM and an IC90 [1] of 3110 nM.

With O=C1C(Br)=Cc2cccc3cccc1c23 the IC50 [1] was < 200 nM and the IC90 [1] was < 200 nM.

Work on COc1cc(NC(=O)C/C(C)=N/NC(=O)c2ccccn2)c(OC)cc1Cl yielded an IC50 [1] of 1940 nM and an IC90 [1] of 4880 nM.

For Cc1ccc2c(c1)c(C1=c3ccccc3=NC1=O)c(O)n2C, the IC50 [1] was < 200 nM and the IC90 [1] was 1870 nM.

With Oc1ccccc1/C=N/Nc1ccnc(SCc2ccccc2)n1 the growth inhibition [2] was 2.04% (inactive).

For COC(=O)C(C)Oc1ccc(-c2nccc(-c3ccccn3)n2)cc1 (centres undefined), the IC50 [1] was 1190 nM and the IC90 [1] was 2920 nM.

With CCOC(=O)c1ccc(NC(=O)Cn2ncc(Cl)c(Cl)c2=O)cc1 the IC50 [1] was < 200 nM and the IC90 [1] was 203 nM.

Molecule O=C(/C=C/c1ccccc1)N1CCN(CCN2C(=O)c3cccc4cccc(c34)C2=O)CC1 has an IC50 [1] of 3470 nM and an IC90 [1] of 5320 nM.

In the case of CCC(C)Nc1ccc(NC(C)CC)cc1 (centres undefined), the IC50 [1] is reported as 609 nM and the IC90 [1] is reported as 1660 nM.

For CCOC(=O)CNC(=O)[C@H](Cc1ccccc1)NC(=O)OCc1ccccc1 (HELM PEPTIDE1{[O=C(OCc1ccccc1)[*:2]].F.G.[CCO[*:1]]}$$$$V2.0), the IC50 [1] was 1090 nM and the IC90 [1] was 1860 nM.

With CCOC(=O)COc1ccc(/C=C2\NC(=S)N(CC)C2=O)cc1 the IC50 [1] was 1310 nM and the IC90 [1] was 5200 nM.

In the case of O=C(CSc1nc2ccccc2c(=O)[nH]1)NC1CCCCC1, the IC50 [1] is reported as < 200 nM and the IC90 [1] is reported as < 200 nM.

With COC(=O)CCc1nc2c(C#N)c(-c3ccc(Cl)cc3)ccn2n1 the IC50 [1] was < 200 nM and the IC90 [1] was 14000 nM.

With Cc1ccc2ccc3ccc(C)nc3c2n1 the IC50 [1] was < 200 nM and the IC90 [1] was < 200 nM.

In the case of COC(=O)C1CC(=O)N(c2ccc(OCc3ccccc3Cl)cc2)C1 (centres undefined), the IC50 [1] is reported as < 200 nM and the IC90 [1] is reported as 18400 nM.
